Measured values reported in patent US20260193254A1, “2-OXOQUINAZOLINE CRYSTALLINE FORMS” (IDEAYA Biosciences, Inc., priority 2022, published 2026).
In brackets after ≈: the same amount, converted by molar mass. Marks after values point to notes of the source that are not given here.

Key:
Format in all cases: physicochemical
[1] = Equilibration with solvents at 25° C. for 2 weeks; settings: equilibration at 25° C. for 2 weeks
Description: Obtained suspension was filtered. The solid part (wet cake) was investigated by XRPD. When differences were observed, additional investigations were performed (e.g. DSC, TGA etc.).

[2] = Temperature cycling experiments; settings: TC8 Acetone/water = 1/1 (v/v) (62 mg/mL), 5-50° C., 6 cycles
Description: After 6 cycles, precipitates were collected at 5° C. by centrifugation. The solid part (wet cake) was investigated by XRPD. When differences were observed, additional investigations were performed (e.g. DSC, TGA etc.).

[3] = Crystallization at room temperature by fast evaporation; settings: nitrogen flow
Text: The samples are filtered by 0.45 μm nylon filter. Obtained solutions were fast evaporated under nitrogen flow. Solid residues were examined for their polymorphic form.

[4] = Precipitation by addition of anti-solvent; settings: 1/5 (v:v)
Description: Anti-solvent was added into the obtained solutions slowly. Precipitates were collected by filtration. The solid part (wet cake) was investigated by XRPD. When differences were observed, additional investigations will be performed (e.g. […] etc.).

[5] = Vapor diffusion experiments; settings: VD6 Ethanol (8), anti-solvent t-Butyl methyl ether, 1:4, room temperature
Description: After sonication for about 30 seconds, obtained solution or suspension is filtered by a 0.45 μm syringe membrane filter. A clear solution is obtained. A suitable volume of the clear solution is transferred into a small glass vial (8 mL) without a lid and the lidless small vial was placed into a large glass vial (40 mL) containing anti-solvents in the bottom (solvent: anti-solvent=1:4, v/v). The large vials are tightly capped and placed at room temperature. Precipitates were collected by filtration. Solid part (wet cake) was investigated by XRPD.

Water activity study = settings: protected by kapton film
Text: These solvent mixtures were saturated with the compound of Formula (I) before addition of the polymorph seeds. […] These solvent mixtures were saturated with the compound of Formula (I) before addition of the polymorph seeds. Obtained suspension was filtered. Solid part (wet cake) was investigated by XRPD.

[6] = Behavior under compression; settings: 2 Mpa/2 min, hydraulic press
Description: XRPD characterization was performed to investigate polymorphic behavior under compression.

[7] = Bulk stability of crystalline forms; settings: for Purity, Bulk (HPLC): Solid state
Text: (§1) Solids obtained after bulk stability study were characterized by XRPD and HPLC.

[8] = Equilibrium solubility in FeSSIF and FaSSIF; settings: 24 hours; for Solubility: target concentration 1 mg/mL, HPLC method 1 or 2 (footnote); for impurity in solubility sample: no unit printed for impurity (column head mg/mL)
Description: (§2) Solid part and liquid part were separated by filtration. Solubility was measured by HPLC. Solid part (wet cake) was investigated by XRPD.

[9] = Equilibrium solubility in SGF (pH 2.0), 0.1 N HCl (pH 1.2) and phosphate buffer (pH 8.0); settings: 24 hours; for solubility at 24 h: 37 °C, thermodynamic from solid, target concentration 1 mg/mL, HPLC method 2
Description: as §2

[10] = Intrinsic dissolution rate (IDR) evaluation in FaSSIF; settings: FaSSIF at 37° C.
Description: Only one surface of the pellet was exposed (surface area=0.50 cm^2) to 900 mL FaSSIF, the dissolution medium. Temperature of chamber medium was set as 37±0.5° C. Shaft rotation as 100 rpm and sampling time points as 2 min, 5 min, 10 min, 15 min, 20 min, 25 min, 30 min, 35 min, 40 min, 50 min, 60 min, and 120 min. 2 mL sample solution was withdrawn at each time point and centrifuged at 14,000 rpm for 5 min to isolate supernatant. Then concentration of the supernatant was analyzed by HPLC. After 120 min, XRPD of disc surface was measured.

[11] = Bulk stability of crystalline forms; design: key: Color A: All No change of color; settings: Solid state
Text: as §1

[12] = 25° C./92% RH, open container, 1 week
[13] = 25° C./92% RH, open container, 2 weeks
[14] = 40° C./75% RH, open container, 1 week
[15] = 40° C./75% RH, open container, 2 weeks
[16] = 60° C., tight container, 1 week
[17] = 60° C., tight container, 2 weeks
[18] = pH 8 (phosphate buffer), 37° C.

SMILES: Nc1nc(=O)n(-c2ccccc2Cl)c2nc(C(F)(F)F)ccc12 [solid state Form V, 4-Amino-1-(2-chlorophenyl)-7-(trifluoromethyl)pyrido[2,3-d]pyrimidin-2(1H)-one]
- Crystalline Form ([1]; Acetone (63 mg/mL)): Form G
- Crystalline Form ([1]; Acetone/water = 1/1 (v/v) (63 mg/mL)): Form G
- Crystalline Form ([1]; Acetonitrile/water = 1/1 (v/v) (62 mg/mL)): Form A
- Crystalline Form ([1]; Ethanol/water = 1/1 (v/v) (64 mg/mL)): Form C (hemi-hydrate)
- Crystalline Form ([1]; Methanol (65 mg/mL)): Form C (hemi-hydrate)
- Crystalline Form ([1]; Methanol/water = 1/1 (v/v) (64 mg/mL)): Form E (hemi-hydrate)
- Crystalline Form ([1]; t-Butyl methyl ether (65 mg/mL)): Form H (MTBE solvate)
- Crystalline Form ([1]; t-Butyl methyl ether/water = 95/5(v/v) (63 mg/mL)): Form H (MTBE solvate)
- Crystalline Form formed by temperature cycling [2]: Form G
- Crystalline Form formed by fast evaporation ([3]; FE1 Methanol (14 mg/mL)): Form B
- Crystalline Form formed by fast evaporation ([3]; FE2 Ethanol (7 mg/mL)): Solid state Form V
- Crystalline Form formed by fast evaporation ([3]; FE3 2-Propanol (4 mg/mL)): Solid state Form V
- Crystalline Form formed by fast evaporation ([3]; FE6 Acetone (3 mg/mL)): Form G
- Crystalline Form formed by fast evaporation ([3]; FE7 Methyl ethyl ketone (3 mg/mL)): Form G
- Crystalline Form formed by fast evaporation ([3]; FE9 Tetrahydrofuran (4 mg/mL)): Form K
- Crystalline Form formed by fast evaporation ([3]; FE10 Acetonitrile (3 mg/mL)): Solid state Form V
- Crystalline Form formed by fast evaporation ([3]; FE12 Methanol/Ethyl acetate = 1/1 (v/v) (5 mg/mL)): Solid state Form V
- Crystalline Form formed by fast evaporation ([3]; FE13 Methanol/Acetonitrile = 1/1 (v/v) (5 mg/mL)): Solid state Form V
- Crystalline Form formed by fast evaporation ([3]; FE14 Ethanol/t-Butyl methyl ether = 1/1 (v/v) (5 mg/mL)): Solid state Form V
- Crystalline Form formed by fast evaporation ([3]; FE15 Ethanol/Dichloromethane = 1/1 (v/v) (5 mg/mL)): Solid state Form V
- Crystalline Form formed by addition of anti-solvent ([4]; AS5 Ethanol (7), anti-solvent Heptane): Form G
- Crystalline Form formed by addition of anti-solvent ([4]; AS8 Ethanol (7), anti-solvent Water): Form F
- Crystalline Form formed by vapor diffusion [5]: Form H
- Form obtained in water activity study (XRPD) (Water activity study; AW4 EtOH/water = 0.4/0.6 (v/v) aw = 0.91, 25° C. (4 days)): Form F (protected by kapton film)
- Form obtained in water activity study (XRPD) (Water activity study; AW5 EtOH/water = 0.3/0.7 (v/v) aw = 0.93, 25° C. (4 days)): Form F (protected by kapton film)
- Form obtained in water activity study (XRPD) (Water activity study; AW6 EtOH/water = 0.2/0.8 (v/v) aw = 0.95, 25° C. (4 days)): Form F (protected by kapton film)^a
- Form obtained in water activity study (XRPD) (Water activity study; AW7 EtOH/water = 0.1/0.9 (v/v) aw = 0.97, 25° C. (4 days)): Form E (protected by kapton film)
- Form obtained in water activity study (XRPD) (Water activity study; AW8 MeOH aw = 0.0, 25° C. (4 days)): Form C (protected by kapton film)
- Form obtained in water activity study (XRPD) (Water activity study; AW9 MeOH/water = 0.970/0.030 (v/v) aw = 0.1, 25° C. (4 days)): Form F (protected by kapton film)
- Form obtained in water activity study (XRPD) (Water activity study; AW10 MeOH/water = 0.930/0.070 (v/v) aw = 0.2, 25° C. (4 days)): Form F (protected by kapton film)
- Form obtained in water activity study (XRPD) (Water activity study; AW11 MeOH/water = 0.893/0.107 (v/v) aw = 0.3, 25° C. (4 days)): Form F (protected by kapton film)
- Form obtained in water activity study (XRPD) (Water activity study; AW12 MeOH/water = 0.775/0.225 (v/v) aw = 0.5, 25° C. (4 days)): Form F (protected by kapton film)
- Form obtained in water activity study (XRPD) (Water activity study; AW13 MeOH/water = 0.580/0.420 (v/v) aw = 0.7, 25° C. (4 days)): Form F (protected by kapton film)
- Form obtained in water activity study (XRPD) (Water activity study; AW14 MeOH/water = 0.4/0.6 (v/v) aw = 0.81, 25° C. (4 days)): Form E (protected by kapton film)
- Form obtained in water activity study (XRPD) (Water activity study; AW15 MeOH/water = 0.3/0.7 (v/v) aw = 0.86, 25° C. (4 days)): Form E (protected by kapton film)
- Form obtained in water activity study (XRPD) (Water activity study; AW16 MeOH/water = 0.2/0.8 (v/v) aw = 0.91, 25° C. (4 days)): Form E (protected by kapton film)
- Form obtained in water activity study (XRPD) (Water activity study; AW17 MeOH/water = 0.1/0.9 (v/v) aw = 0.96, 25° C. (4 days)): Form E (protected by kapton film)
- Form obtained in water activity study (XRPD) (Water activity study; AW18 Water aw = 1.0, 25° C. (4 days)): Form E (protected by kapton film)^b
- XRPD after compression [6]: No form change
- Purity, Bulk (HPLC) [7, 12]: 98.9%
- Purity, Bulk (HPLC) [7, 13]: 98.9%
- Purity, Bulk (HPLC) [7, 14]: 98.9%
- Purity, Bulk (HPLC) [7, 15]: 98.7%
- Purity, Bulk (HPLC) [7, 16]: 98.8%
- Purity, Bulk (HPLC) [7, 17]: 98.9%
- Initial purity ([7]; before stress, HPLC): 98.9%
- chemical stability and physical stability (bulk stability) ([7]; stressed under 25° C./92 RH, 40% C/75% RH and 60° C., XRPD and HPLC): good chemical stability and physical stability
- final pH ([8]; FaSSIF, pH 6.5, 37° C.): 6.5
- Solubility ([8]; FaSSIF, pH 6.5, 37° C.): 100 µg/mL (≈ 294 µM)
- impurity in solubility sample ([8]; FaSSIF, pH 6.5, 37° C.): no impurity
- final pH ([8]; FeSSIF, pH 5.0, 37° C.): 5.0
- Solubility ([8]; FeSSIF, pH 5.0, 37° C.): 260 µg/mL (≈ 763 µM)
- impurity in solubility sample ([8]; FeSSIF, pH 5.0, 37° C.): no impurity
- solubility at 24 h ([9]; 0.1 N HCl, pH 1.2, simulated gastric fluid, pH 1.2 (0.1N HCl)): 150 µg/mL (≈ 440 µM)
- final pH ([9]; SGF, pH 2.0, 37° C.): 2.3
- final pH ([9]; pH 1.2 (0.1N HCl), 37° C.): 1.3
- XRPD of solid after solubility test [9, 18]: Solid state Form V
- final pH [9, 18]: 8.0
- impurity in solubility sample [9, 18]: no impurity
- solubility at 24 h ([9]; phosphate buffer, pH 8, aqueous buffer, pH 8 (phosphate buffer)): 40 µg/mL (≈ 117 µM)
- solubility at 24 h ([9]; simulated gastric fluid (SGF), pH 2, simulated gastric fluid, SGF, pH 2.0, 37° C.): 70 µg/mL (≈ 205 µM)
- XRPD after IDR ([10]; disc surface after 120 min): No form change
- Concentration detected during IDR test (Comments) ([10]; for Form V and Form A remains same during the whole process, LOQ for Form T and amorphous form): (0.006 mg/mL)
- Color [11, 12]: A
- Color [11, 13]: A
- Color [11, 14]: A
- Color [11, 15]: A
- Color [11, 16]: A
- Color [11, 17]: A
